{
  "source": "patent US20220142934A1",
  "about": "“COMBINATION THERAPEUTICS AND METHODS FOR THE TREATMENT OF NEURODEGENERATIVE AND OTHER DISEASES” (Aphios Corporation, priority 2020, published 2022)",
  "key": {"ADAM10": {"tested_on": "ADAM10", "test": "ADAM10 (alpha-secretase) expression in SH-SY5Y cells", "assay_type": "cell-based", "conditions": "each agent alone or in combination", "description": "Therefore, Bryostatin-1 may increase a-secretase processing through 2 independent mechanisms: (i) activation of PKCs which stimulate secretase; and (ii) increased expression of a-secretase."}, "[1]": {"tested_on": "SH-SY5Y neuroblastoma cells", "test": "sAPPα formation/release in SH-SY5Y cells (6E10 western blot, densitometry)", "assay_type": "cell-based", "conditions": "Bryostatin-1 alone", "experimental": "Cells were treated with RA, Bryostatin-1 (10^−9M)+RA, Bryostatin-1 (10^−10M) RA+Bryostatin-1 (10^−10M) for 3 h. Representative western blots show sAPPα recovered from culture medium."}, "prostate cancer cells": {"tested_on": "prostate cancer cells", "conditions": "by modulating PKC delta translocation and preventing TNF-alpha release; cited from earlier work"}, "[2]": {"tested_on": "Mouse strain B6C3-Tg carrying mutant Swedish Amyloid precursor protein (sweAPP) and PSI (presenilin-l) genes", "test": "Water maze studies in Alzheimer's disease mouse model", "assay_type": "in vivo", "description": "Mouse strain B6C3-Tg carrying mutant Swedish Amyloid precursor protein (sweAPP) and PSI (presenilin-l) genes associated with early onset Alzheimer's disease were subjected to water maze tests at 5-6 months of age."}},
  "data": [
    {"smiles": "CCC/C=C/C=C/C(=O)O[C@H]1/C(=C/C(=O)OC)C[C@H]2C[C@H]([C@@H](C)O)OC(=O)C[C@H](O)C[C@@H]3C[C@H](OC(C)=O)C(C)(C)[C@](O)(C[C@@H]4C/C(=C/C(=O)OC)C[C@H](/C=C/C(C)(C)[C@]1(O)O2)O4)O3", "note": "[Bryostatin-1]", "values": [
      {"measurement": "expression of ADAM10 (the major form of alpha-secretase)", "setting": "ADAM10", "result": "significantly increase"},
      {"measurement": "sAPPα formation", "setting": "[1]; 10^−9M, SH-SY5Y cells", "result": "increased"},
      {"measurement": "sAPPα recovered from culture medium", "setting": "[1]; 10^−10M, 3 h, SH-SY5Y cells, vs control", "result": "significantly increased"},
      {"measurement": "activity of alpha-secretase", "setting": "[1]; SH-SY5Y neuroblastoma cells", "result": "potently stimulate"},
      {"measurement": "phorbol ester-induced apoptosis", "setting": "prostate cancer cells", "result": "inhibits"},
      {"measurement": "protection against Alzheimer's disease mediated memory loss (water maze)", "setting": "[2]; 5 micrograms/mouse on alternative days orally in an oil formulation, mice 5-6 months of age, vs control animals", "result": "significant protection"},
      {"measurement": "memory and cognition in AD model", "setting": "[2]; mouse, in vivo", "result": "enhance memory and cognition"}
    ]}
  ]
}
